These results are taken from patent US20050256037A1, “Antibacterial amide macrocyles” (Bayer HealthCare AG, priority 2003, published 2005).

Assay [1] relates to S. aureus T17. In words: MIC, liquid dilution test in minimal medium (96-well microtitre plate). Format: cell-based. Here is the method:
(§1) Determination of the Minimum Inhibitory Concentration (MIC)
(§2) The minimum inhibitory concentration (MIC) is the minimum concentration of an antibiotic with which the growth of a test microbe is inhibited over 18-24 h. The inhibitor concentration can in these cases be determined by standard microbiological methods (see, for example, The National Committee for Clinical Laboratory Standards. Methods for dilution antimicrobial susceptibility tests for bacteria that grow aerobically; approved standard-fifth edition. NCCLS document M7-A5 [ISBN 1-56238-394-9]. NCCLS, 940 West Valley Road, Suite 1400, Wayne, Pa. 19087-1898 USA, 2000). The MIC of the compounds of the invention is determined in the liquid dilution test on the 96-well microtitre plate scale. The bacterial microbes are cultivated in a minimal medium (18.5 mM Na2HPO4, 5.7 mM KH2PO4, 9.3 mM NH4Cl, 2.8 mM MgSO4, 17.1 mM NaCl, 0.033 μg/ml thiamine hydrochloride, 1.2 μg/ml nicotinic acid, 0.003 μg/ml biotin, 1% glucose, 25 μg/ml of each proteinogenic amino acid with the exception of phenylalanine; [H.-P. Kroll; unpublished]) with addition of 0.4% BH broth (test medium). In the case of Enterococcus faecium L4001, heat-inactivated fetal calf serum (FCS; GibcoBRL, Germany) is added to the test medium in a final concentration of 10%. Overnight cultures of the test microbes are diluted to an OD578 of 0.001 (to 0.01 in the case of enterococci) in fresh test medium, and incubated 1:1 with dilutions of the test substances (1:2 dilution steps) in test medium (200 μl final volume). The cultures are incubated at 37° C. for 18-24 hours; enterococci in the presence of 5% CO2.
(§3) The lowest substance concentration in each case at which bacterial growth was no longer visible is defined as the MIC. […] The compounds show a graded antibacterial effect against most of the test microbes.
The S. aureus strain T17 is isolated in vivo. CFW1 mice are infected intraperitoneally with 4×10^7 S. aureus 133 cells per mouse. 0.5 h after the infection, the animals are treated intravenously with 50 mg/kg biphenomycin B. The kidneys are removed from the surviving animals on day 3 after the infection. After homogenization of the organs, the homogenates are plated out as described for RN4220Bi^R on antibiotic-free and antibiotic-containing agar plates and incubated at 37° C. overnight. […] About 20 of these colonies are tested for the biphenomycin B MIC, and a colony with an MIC of >50 μM is selected for further cultivation, and the strain is referred to a T17.

Assay [2] has as its system S. aureus RN4220Bi^R. In words: MIC of the isolated resistant colony. It is filed as cell-based. Conditions: colony selected as strain RN4220Bi^R. As to the method: The S. aureus strain RN4220Bi^R is isolated in vitro. […] Whereas about 1×10^7 cells grow on the antibiotic-free plate, about 100 colonies grow on the antibiotic-containing plate, corresponding to a resistance rate of 1×10^−5. Some of the colonies grown on the antibiotic-containing plate are tested for the biphenomycin B MIC. One colony with an MIC of >50 μM is selected for further use, and the strain is referred to as RN4220Bi^R.

Assay [3] concerns E. faecium L4001. In words: MIC, liquid dilution test in minimal medium (96-well microtitre plate). Format: cell-based. Conditions: Enterococcus faecium, L4001, read-out: MIC E. faecium L4001. As to the method:
as §1, §2, §3

Assay [4] concerns S. aureus E33. The description is as above. Format: cell-based. Conditions: Staphylococcus aureus, E33, read-out: MIC S. aureus E33. As to the method: as §1, §2, §3
Assay [5] concerns the target S. aureus 133 Translation. In words: S. aureus in vitro transcription-translation assay (S30 extract, firefly luciferase reporter). It is filed as biochemical. The source says: In vitro Transcription-Translation with S. aureus Extracts
Construction of an S. aureus Luciferase Reporter Plasmid
A reporter plasmid which can be used in an in vitro transcription-translation assay from S. aureus is constructed by using the plasmid pBESTluc (Promega Corporation, USA). The E. coli tac promoter present in this plasmid in front of the firefly luciferase is replaced by the capA1 promoter with appropriate Shine-Dalgarno sequence from S. aureus. The primers CAPFor 5′-CGGCCAAGCTTACTCGGAT-[…] […]-3′ and CAPRev 5′-[…]-3′ are used for this. The primer CAPFor contains the capA1 promoter, the ribosome binding site and the 5′ region of the luciferase gene. After PCR using pBESTluc as template it is possible to isolate a PCR product which contains the firefly luciferase gene with the fused capA1 promoter. This is, after restriction with ClaI and HindIII, ligated into the vector pBESTluc which has likewise been digested with ClaI and HindIII. The resulting plasmid pla is able to replicate in E. coli and be used as template in the S. aureus in vitro transcription-traslation assay.
Preparation of S30 Extracts from S. aureus
Six litres of BHI medium are inoculated with a 250 ml overnight culture of an S. aureus strain and allowed to grow at 37° C. until the OD600 run is 2-4. The cells are harvested by centrifugation and washed in 500 ml of cold buffer A (10 mM Tris acetate, pH 8.0, 14 mM Magnesium acetate, 1 mM DTT, 1 M KCl). After renewed centrifugation, the cells are washed in 250 ml of cold buffer A with 50 mM KCl, and the resulting pellets are frozen at −20° C. for 60 min. The pellets are thawed on ice in 30 to 60 min and taken up to a total volume of 99 ml in buffer B (10 mM Tris acetate, pH 8.0, 20 mM Magnesium acetate, 1 mM DTT, 50.mM KCl). 1.5 ml portions of lysostaphin (0.8 mg/ml) in buffer B are introduced into 3 precooled centrifuge cups and each mixed with 33 ml of the cell suspension. The samples are incubated at 37° C., shaking occasionally, for 45 to 60 min, before 150 μl of a 0.5 M DTT solution are added. The lysed cells are centrifuged at 30 000×g and 4° C. for 30 min. The cell pellet is taken up in buffer B and then centrifuged again under the same conditions, and the collected supernatants are combined. The supernatants are centrifuged again under the same conditions, and 0.25 volume of buffer C (670 mM Tris acetate, pH 8.0, 20 mM Magnesium acetate, 7 mM Na3 phosphoenolpyruvate, 7 mM DTT, 5.5 mM ATP, 70 μM amino acids (complete from Promega), 75 μg of pyruvate kinase (Sigma, Germany)/ml are added to the upper ⅔ of the supernatant. The samples are incubated at 37° C. for 30 min. The supernatants are dialysed against 2 l of dialysis buffer (10 mM Tris acetate, pH 8.0, 14 mM Magnesium acetate, 1 mM DTT, 60 mM Potassium acetate) in a dialysis tube with a 3500 Da cut-off with one buffer change at 4° C. overnight. The dialysate is concentrated to a protein concentration of about 10 mg/ml by covering the dialysis tube with cold PEG 8000 powder (Sigma, Germany) at 4° C. The S30 extracts can be stored in aliquots at −70° C.
Determination of the IC50 in the S. aureus in vitro Transcription-Translation Assay Inhibition of protein biosynthesis of the compounds can be shown in an in vitro transcription-translation assay. The assay is based on the cell-free transcription and translation of firefly luciferase using the reporter plasmid pla as template and cell-free S30 extracts obtained from S. aureus. The activity of the resulting luciferase can be detected by luminescence measurement.
The amount of S30 extract or plasmid pla to be employed must be tested anew for each preparation in order to ensure an optimal concentration in the assay. 3 μl of the substance to be tested, dissolved in 5% DMSO, are introduced into an MTP. Then 10 μl of a suitably concentrated plasmid solution pla are added. […]
In general terms: In a reporter assay the amount or activity of a reporter protein is the signal.

In assay [6] the test system is E. faecium L4001. In words: MIC, alternative method: agar dilution test with 20% defibrinated horse blood. It is filed as cell-based. Conditions: Enterococcus faecium. Here is the method:
(§4) Alternative Method for Determining the Minimum Inhibitory Concentration (MIC)
(§5) The minimum inhibitory concentration (MIC) is the minimum concentration of an antibiotic with which the growth of a test microbe is inhibited over 18-24 h. The inhibitor concentration can be determined by standard microbiological methods using modified medium in an agar dilution test (see, for example, the National Committee for Clinical Laboratory Standards. Methods for dilution antimicrobial susceptibility tests for bacteria that grow aerobically; approved standard-fifth edition. NCCLS document M7-A5 [ISBN 1-56238-394-9]. NCCLS, 940 West Valley Road, Suite 1400, Wayne, Pa. 19087-1898 USA, 2000). The bacterial microbes are cultivated on 1.5% agar plates containing 20% defibrinated horse blood. The test microbes, which are incubated on Columbia blood agar plates (Becton-Dickinson) overnight, are diluted in PBS, adjusted to a microbe count of about 5×10^5 microbes/ml and placed as drops (1-3 μl) on test plates. The test substances contain various dilutions of the test substances (1:2 dilution stages). The cultures are incubated at 37° C. in the presence of 5% CO2 for 18-24 hours.
(§6) The lowest concentration of each substance at which no visible bacterial growth occurs is defined as the MIC and is reported in μg/ml.

For assay [7], the system named is S. aureus E33. Described as above. Format: cell-based. Conditions: Staphylococcus aureus. As to the method:
as §4, §5, §6

In assay [8] the test system is S. aureus T17. The assay is described as above. It is filed as cell-based. Conditions: Staphylococcus aureus. As to the method: as §4, §5, §6
The subject of assay [9] is S. aureus 133. In words: Systemic infection with S. aureus 133 (mouse sepsis model). Format: in vivo. Conditions: female CFW1 mice, i.p. infection, i.v. therapy 30 minutes after infection, survival recorded for 6 days.
Description: Systemic Infection with S. aureus 133
For this purpose, S. aureus 133 cells are cultured overnight in BH broth (Oxoid, Germany). The overnight culture was diluted 1:100 in fresh BH broth and expanded for 3 hours. The bacteria which are in the logarithmic phase of growth are centrifuged and washed twice with buffered physiological saline solution. A cell suspension in saline solution with an extinction of 50 units is then adjusted in a photometer (Dr Lange LP 2W). After a dilution step (1:15), this suspension is mixed 1:1 with a 10% strength mucine suspension. 0.2 ml of this infection solution is administered i.p. per 20 g of mouse. This corresponds to a cell count of about 1-2×10 microbes/mouse. The i.v. therapy takes place 30 minutes after the infection. Female CFW1 mice are used for the infection test. The survival of the animals is recorded for 6 days. The animal model is adjusted so that untreated animals die within 24 h after the infection.
Where [10] appears, read: Staphylococcus aureus, T17, read-out: MIC S. aureus T17.
The mark [11] stands for this setting: L4001, read-out: MIC E. faecium L4001.
[12] abbreviates: E33, read-out: MIC S. aureus E33.
Where [13] appears, read: T17, read-out: MIC S. aureus T17.
Where [14] appears, read: L4001, Table B, agar dilution, 20% defibrinated horse blood, read-out: MIC E. faecium L4001.
The mark [15] stands for this setting: E33, Table B, agar dilution, 20% defibrinated horse blood, read-out: MIC S. aureus E33.
Where [16] appears, read: T17, Table B, agar dilution, 20% defibrinated horse blood, read-out: MIC S. aureus T17.

One may read the MIC as the smallest concentration in the dilution series that meets the test's criterion for growth inhibition. One may read the IC50 as the concentration that gives 50% inhibition. Low readings indicate greater potency, high ones weaker potency.

The structures appear in SMILES notation. In brackets after ≈: the same amount, converted by molar mass. Structures can show the parent of a compound that is named as a salt.

On to `NC[C@H](O)C[C@@H]1NC(=O)[C@@H](N)Cc2cc(ccc2O)-c2ccc(O)c(c2)C[C@@H](C(=O)O)NC1=O` [biphenomycin B, reference compound], for which the MIC in assay [1] (colony selected as strain T17, isolated from kidney of treated mice) was above 50 µM; in assay [2], above 50 µM.

As to `CN1C(=O)[C@H](CCCN)NC(=O)[C@@H](N)Cc2cc(ccc2O)-c2ccc(O)c(c2)C[C@H]1C(=O)NCCN` [Example 3, (8S,11S,14S)-14-Amino-N-(2-aminoethyl)-11-(3-aminopropyl)-5,17-dihydroxy-9-methyl-10,13-dioxo-9,12-diazatricyclo[14.3.1.1^2,6]henicosa-1(20),2(21),3,5,16,18-hexaene-8-carboxamide trihydrochloride], the minimal inhibitory concentration (MIC) in assay [3] is 25 µM; in [4] it was 1.6 µM; in assay [1] (setting [10]), 3.1 µM; in assay [6] (setting [11]) it was 16 µg/mL; in [7] (setting [12]), 2 µg/mL; in assay [8] (setting [13]), 4 µg/mL. In addition, the half-inhibitory concentration (IC50) in assay [5] (Table A) and in assay [5] (Table B) was 350 nM throughout.

Compound `NCCCNCCCNC(=O)[C@@H]1Cc2cc(ccc2O)-c2ccc(O)c(c2)C[C@H](N)C(=O)N[C@@H](CCCN)C(=O)N1` [Example 42, (8S,11S,14S)-14-amino-11-(3-aminopropyl)-N-{3-[(3-aminopropyl)amino]propyl}-5,17-dihydroxy-10,13-dioxo-9,12-diazatricyclo[14.3.1.1^2,6]henicosa-1(20),2(21),3,5,16,18-hexaene-8-carboxamide] displayed an IC50 in [5] (Table B) of 400 nM. Besides, the results for the minimal inhibitory concentration (MIC) in assay [6] (setting [14]), in assay [7] (setting [15]) and in assay [8] (setting [16]) were 4 µg/mL (≈ 7.02 µM), 1 µg/mL (≈ 1.76 µM) and 2 µg/mL (≈ 3.51 µM), respectively.

Consider `NCCC[C@H](N)CNC(=O)[C@@H]1Cc2cc(ccc2O)-c2ccc(O)c(c2)C[C@H](N)C(=O)N[C@@H](CCCN)C(=O)N1` [Example 45, (8S,11S,14S)-14-amino-11-(3-aminopropyl)-N-[(2S)-2,5-diaminopentyl]-5,17-dihydroxy-10,13-dioxo-9,12-diazatricyclo[14.3.1.1 ^2,6]henicosa-1(20),2(21),3,5,16,18,-hexaene-8-carboxamide], for which 100 nM corresponded to half-maximal inhibition in assay [5] (Table B) (IC50). Besides, the MIC in [6] (setting [11]) turned out to be 2 µg/mL (≈ 3.6 µM); in assay [7] (setting [12]), 0.5 µg/mL (≈ 0.9 µM); in [8] (setting [13]) it was 2 µg/mL (≈ 3.6 µM).

`NCCC[C@@H]1NC(=O)[C@@H](N)Cc2cc(ccc2O)-c2ccc(O)c(c2)C[C@@H](C(=O)NCCN(CCN)CCN)NC1=O` [Example 43, (8S,11S,14S)-14-amino-11-(3-aminopropyl)-N-{2-[bis(2-aminoethyl)amino]ethyl}-5,17-dihydroxy-10,13-dioxo-9,12-diazatricyclo[14.3.1.1^2,6]henicosa-1(20),2(21),3,5,16,18-hexaene-8-carboxamide] yielded an IC50 in assay [5] (Table B) of 150 nM. For the same compound, the results for the MIC in assay [6] (setting [14]), in assay [7] (setting [15]) and in assay [8] (setting [16]) were 16 µg/mL (≈ 27.4 µM), 1 µg/mL (≈ 1.71 µM) and 2 µg/mL (≈ 3.42 µM), respectively.

For `CN1C(=O)[C@H](C[C@@H](O)CN)NC(=O)[C@@H](N)Cc2cc(ccc2O)-c2ccc(O)c(c2)C[C@H]1C(=O)NC1CCNCC1` [Example 2, (8S,11S,14S)-14-Amino-11-[(2R)-3-amino-2-hydroxypropyl]-5,17-dihydroxy-9-methyl-10,13-dioxo-N-piperidin-4-yl-9,12-diazatricyclo[14.3.1.1^2,6]henicosa-1(20),2(21),3,5,16,18-hexaene-8-carboxamide trihydrochloride], the MIC in assay [3] was 25 µM; in assay [4], 1.6 µM; in assay [1] (setting [10]) it was 6.3 µM. In addition, half-maximal inhibition in assay [5] (Table A) (IC50) required 200 nM. Further, the “therapeutic effect ED100” value in assay [9] is 1.25 mg/kg.
